Columns and labels:
[1] = target: recombinant RORγ Ligand Binding Domain (LBD) protein (Homo sapiens (Human), UniProt P51449); assay: Radio-Ligand RORγ Binding Assay (Assay 1); settings: competition with 25-hydroxy [26,27-3H]-cholesterol, SPA; Table 9; read-out: RORγ Binding Ki Range*
Method: Radio-Ligand RORγ Binding Assay (Assay 1)
Compounds of the present invention were tested for ability to bind to RORγ in a cell-free competition assay with commercially available radio-ligand (RL), 25-hydroxy [26,27-^3H]— cholesterol (PerkinElmer, Cat. # NET674250UC), for a ligand binding site on a recombinant RORγ Ligand Binding Domain (LBD) protein expressed as a 6×His-Glutathione-S-Transferase (GST) fusion (“6×His” disclosed as SEQ ID NO: 2). The assay was performed in 96-well SPA plates (PerkinElmer, Cat. #1450-401) in 50 mM HEPES buffer, pH 7.4, containing 150 mM NaCl, 5 mM MgCl2, 10% (v/v) glycerol, 2 mM CHAPS, 0.5 mM β-octylglucopyranoside and 5 mM DTT. Tested compounds were dissolved in DMSO, and semi-log (3.162×) serial dilutions of the compounds were prepared in the same solvent. Two μL of the DMSO solutions were mixed with 28 μL of 8.6 nM 25-hydroxy [26,27-^3H]— cholesterol and 50 μL of 24 nM RORγ LBD. The plate was shaken at 700 rpm for 20 min and incubated for 10 min at rt, after which 40 μL of poly-Lys YSi SPA beads (PerkinElmer, Cat. # RPNQ0010) were added to achieve 50 μg of the beads per well. The plate was incubated on an orbital shaker for 20 min and then for 10 min without agitation at rt. SPA signal for tritium beta radiation was registered on PerkinElmer Microbeta plate reader. Percent inhibition values were calculated based on the high signal obtained with DMSO control and the low signal observed with 10 μM standard RORγ inverse agonist T0901317 (SigmaAldrich, Cat. # T2320). The percent inhibition vs. concentration data were fit into a four-parameter model, and […] values were calculated from the fit as the concentrations corresponding to the inflection points on the dose-response curves. Inhibitory constants (Ki) were calculated using the following equation, where [RL] is the concentration in the assay and KD is a dissociation constant of 25-hydroxy [26,27-^3H]-cholesterol: […]

[2] = target: full-length RORγt in Jurkat cells (Homo sapiens (Human), UniProt P51449); assay: RORγt 5xRORE Assay in Jurkat Cells (Assay 2); assay type: cell-based; settings: Nanoluc luciferase reporter, 16-18 hrs, Table 9, read-out: RORγt5X IC50 Range*
Sequence of full-length RORγt in Jurkat cells (P51449 other isoform, or with tags, fused parts or gaps): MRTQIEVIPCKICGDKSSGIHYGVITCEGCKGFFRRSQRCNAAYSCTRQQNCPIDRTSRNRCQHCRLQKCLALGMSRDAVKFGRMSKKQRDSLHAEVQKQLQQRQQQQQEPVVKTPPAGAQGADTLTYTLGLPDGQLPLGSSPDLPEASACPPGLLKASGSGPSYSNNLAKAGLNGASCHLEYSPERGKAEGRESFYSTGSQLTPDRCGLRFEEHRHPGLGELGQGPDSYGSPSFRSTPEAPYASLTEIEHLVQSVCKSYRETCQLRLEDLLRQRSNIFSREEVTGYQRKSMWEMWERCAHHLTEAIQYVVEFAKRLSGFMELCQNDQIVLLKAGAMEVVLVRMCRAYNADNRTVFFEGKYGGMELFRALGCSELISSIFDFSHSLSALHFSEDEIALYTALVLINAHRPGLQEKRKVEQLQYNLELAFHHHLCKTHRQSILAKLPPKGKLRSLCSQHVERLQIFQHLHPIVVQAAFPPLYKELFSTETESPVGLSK
Method: [formula] RORγt 5xRORE Assay in Jurkat Cells (Assay 2)
Compounds of the present invention were tested for RORγ inverse agonist activity in a cell-based, transcriptional activity assay. Secreted Nanoluc® luciferase was used as a reporter for transcriptional activity of the full-length RORγt in Jurkat cells (ATCC, Cat. # TIB-152). A reporter plasmid was constructed by inserting 5 repeats of the ROR Response Element (RORE) […] (SEQ ID NO:1) into a commercially available promoterless plasmid pNL1.3[secNluc] (Promega, Cat. # N1021) using KpnI and HindIII restriction sites. The expression plasmid for RORγt was purchased (Geneocopoeia, Cat. # EX-T6988-M02). Jurkat cells (30 million cells) were transfected with 11 μg of EX-T6988-MO2 and 26 μg of the reporter plasmid in OptiMEM® media using Lipofectamine® LTX and Plus™ reagents (Life Technologies, Cat. #15338-100). After 5-6 h of incubation at 37° C./5% CO2, the cells were collected, resuspended in phenol-red free RPMI media containing 10% (v/v) delipidated FBS (Hyclone, Cat. # SH30855.03) and dispensed into 96-well clear bottom tissue culture plates (CoStar, Cat. #3603), at 80,000 cells per well. Tested compounds were added to the cells in the same media (final concentration of DMSO was 0.1% (v/v)), and the plates were incubated at 37° C./5% CO2 for 16-18 hrs. Luciferase activity in the conditioned supernatants was determined with NanoGlo® assay reagents (Promega, Cat. # N1130).

Sequence of recombinant RORγ Ligand Binding Domain (LBD) protein (P51449 269-508): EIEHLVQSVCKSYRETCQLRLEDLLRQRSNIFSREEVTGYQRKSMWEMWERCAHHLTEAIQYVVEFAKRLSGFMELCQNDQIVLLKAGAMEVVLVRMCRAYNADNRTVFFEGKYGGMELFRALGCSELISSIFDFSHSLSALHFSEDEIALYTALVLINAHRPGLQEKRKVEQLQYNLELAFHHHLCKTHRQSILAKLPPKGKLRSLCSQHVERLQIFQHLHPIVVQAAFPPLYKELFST

SMILES | Ki [1] [nM] | IC50 [2] [nM]
CCS(=O)(=O)c1ccc(CC(=O)Nc2nc3c(s2)CN(Cc2ccc(-c4ccc(=O)n(C)c4)cc2)[C@H]3C(C)C)nc1 | < 100 | < 100
CCS(=O)(=O)c1ccc(CC(=O)Nc2nc3c(s2)CN(Cc2ccc(Cl)cc2)[C@@]3(C)C(C)C)cc1 | < 100 | < 100
CCS(=O)(=O)c1cnc(CC(=O)Nc2nc3c(s2)CN(Cc2ccc(C#N)cc2)[C@H]3C(C)C)nc1 | < 100 | 100 to 1000
CC[C@@]1(C)c2nc(NC(=O)Cc3ccc(S(=O)(=O)CC)cc3)sc2CN1Cc1ccc(C#N)cc1 | < 100 | 100 to 1000
CC[C@@]1(C)c2nc(NC(=O)Cc3ccc(S(=O)(=O)CC)cc3)sc2CN1Cc1ccc(Cl)cc1 | < 100 | < 100
CCS(=O)(=O)c1ccc(CC(=O)Nc2nc3c(s2)CN(Cc2ccc(OC(F)(F)F)c(Cl)c2)[C@H]3C(C)C)nc1 | < 100 | < 100
CCS(=O)(=O)c1ccc(CC(=O)Nc2nc3c(s2)CN(c2ncc(C(C)=O)c(C(F)(F)F)n2)[C@H]3C(C)C)cc1 | < 100 | > 1000
CC(C)[C@H]1c2nc(NC(=O)Cc3ccc(C#N)cc3)sc2CN1Cc1ccc(C#N)c(Cl)c1 | < 100 | 100 to 1000
CCS(=O)(=O)c1cnc(CC(=O)Nc2nc3c(s2)CN(Cc2ccc(C(F)(F)F)cc2)[C@H]3C(C)C)nc1 | < 100 | 100 to 1000
CC(C)[C@H]1c2nc(NC(=O)Cc3ccc(C(N)=O)cc3)sc2CN1Cc1ccc(Cl)cc1 | < 100 | 100 to 1000
Cc1nc(C(F)(F)F)ccc1CN1Cc2sc(NC(=O)Cc3ccc(S(C)(=O)=O)cc3F)nc2[C@@H]1C(C)C | < 100 | < 100
CCS(=O)(=O)c1ccc(CC(=O)Nc2nc3c(s2)CN(Cc2ccc(N)nc2)[C@H]3C(C)C)cc1 | < 100 | > 1000
CCS(=O)(=O)c1ccc(CC(=O)Nc2nc3c(s2)CN(Cc2cnc(C)nc2)[C@H]3C(C)C)cc1 | < 100 | 100 to 1000
CC[C@H]1c2nc(NC(=O)Cc3ccc(CO)cc3)sc2CN1Cc1ccc(Cl)cc1 | < 100 | 100 to 1000
CC(C)[C@H]1c2nc(NC(=O)Cc3ccc(C(=O)O)cc3)sc2CN1Cc1ccc(Cl)cc1 | < 100 | 100 to 1000
CC(C)[C@H]1c2nc(NC(=O)Cc3ccc(S(C)(=O)=O)cc3)sc2CN1Cc1ccc(-c2nnnn2C)cc1 | < 100 | < 100
Cc1nnc(-c2ccc(CN3Cc4sc(NC(=O)Cc5ccc(S(C)(=O)=O)cc5)nc4[C@@H]3C(C)C)cc2)o1 | < 100 | < 100
CCS(=O)(=O)c1ccc(CNC(=O)c2nc3c(s2)CN(CC2CN(CC(F)(F)F)CCO2)[C@H]3C(C)C)cc1 (stereo partly drawn) | < 100 | > 1000
CCS(=O)(=O)c1ccc(CNC(=O)c2nc3c(s2)CN(CC2CN(C(=O)OC(C)(C)C)CCO2)[C@H]3C(C)C)cc1 (stereo partly drawn) | < 100 | < 100
CCS(=O)(=O)c1cnc(CC(=O)Nc2nc3c(s2)CN(Cc2ccc(Cl)cc2)[C@H]3C(C)C)nc1 | < 100 | 100 to 1000
CC(C)[C@H]1c2nc(NC(=O)Cc3ccc(S(C)(=O)=O)cc3)sc2CN1[C@H](C)c1ccc(C#N)cc1Cl | < 100 | 100 to 1000
CCS(=O)(=O)c1ccc(CC(=O)Nc2nc3c(s2)CN(Cc2ccncc2)[C@H]3C(C)C)cc1 | < 100 | > 1000
CCS(=O)(=O)c1ccc(CC(=O)Nc2nc3c(s2)CN(Cc2ccc(CO)cc2)[C@H]3C(C)C)cc1 | < 100 | 100 to 1000
CC[C@H]1c2nc(NC(=O)Cc3ccc(S(C)(=O)=O)cc3)sc2CN1Cc1ccc2nn[nH]c2c1 | < 100 | 100 to 1000
CCS(=O)(=O)c1ccc(CC(=O)Nc2nc3c(s2)CN(c2ncc(C(F)(F)F)cn2)[C@H]3C(C)C)cc1 | < 100 | > 1000
CCOC(=O)c1cnc(N2Cc3sc(NC(=O)Cc4ccc(S(=O)(=O)CC)cc4)nc3[C@@H]2C(C)C)nc1C(F)(F)F | < 100 | > 1000
CCS(=O)(=O)c1ccc(CC(=O)Nc2nc3c(s2)CN(c2nc(C)cc(C(F)(F)F)n2)[C@H]3C(C)C)cc1 | < 100 | > 1000

From patent publication US9868748B2, “Thiazolopyrrolidine inhibitors of ROR- γ” (Vitae Pharmaceuticals, Inc., priority 2013, dated 2018)
